In patent US8592648B2, “Seed treatment with combinations of pyrethrins/pyrethroids and thiamethoxam” (Monsanto Technology, LLC, priority 2000, dated 2013):

Key:
black cutworm larvae = assay: Black cutworm feeding damage on corn shoots and foliage, seed treatment vs soil granular treatment (Reference Example 1); assay type: in vivo; details: for Plant Defol. 3 DAI / Plant Defol. 7 DAI / Plant Defol. 10 DAI: rating 1=no damage, 10=complete defoliation
Method: This example compares the efficacy of seed treatment with lambda-cyhalothrin (CAS #91465-08-6) to soil granular treatments with tefluthrin (CAS #79538-32-2) against feeding damage by black cutworm larvae on shoots and foliage.
(§1) A lambda-cyhalothrin seed treatment formulation was prepared by diluting the WARRIOR® T insecticide (Zeneca Ag Products, Wilmington, Del.), which contains 11.4% lambda-cyhalothrin as the active ingredient, into water as a carrier. This formulation was applied for one minute at room temperature to twenty-five grams of Pioneer corn seed (Cultivar PN3394) in a rotostatic seed treater at a rate of 125 g, 250 g or 500 g active ingredient (Al) to 100 kg seed. The treated seeds were allowed to sit uncapped for four to twenty-four hours before planting.
(§2) Treated and untreated seeds (Pioneer hybrid PN3394) were planted in a soil mix consisting of Dupo silt loam, 30% Perlite, 20% coarse sand (WB-10 grade) in six groups of tubs (20 in. L×15 in. W×8 in. D). Twelve seeds were planted per tub and three tubs were planted for each treatment regimen. Soil applications of FORCE® 3GR, which contains 3% tefluthrin granule as the active ingredient, were used for two sets of tubs containing untreated seeds. The FORCE 3GR was applied either in-furrow or incorporated into a 5 inch band on the soil surface at the time of planting. The tubs were overhead irrigated until the plants were infested with black cutworm larvae.
The rate of application for the FORCE 3GR was reported in units of grams of the active ingredient per hectare (g/ha), while the rate of application of the WARRIOR T to the seeds was reported in units of grams of the active ingredient per 100 kilograms of the seeds (g/100 kg). Although the conversion of one of these units to the other will vary somewhat according to the type of seed that is being used, the size and weight of the seed, and the density of planting that is used—among other things—an approximate conversion for corn seed can be carried out as follows. Assuming a seed application rate of lambda cyhalothrin of, for example, 125 g/100 kg of seed and a planting density of 15 lbs seed/ac, about 14.7 acres can be planted with 100 kg of the seed. This is an effective application rate of about 8.5 g of lambda cyhalthrin per acre. At 2.47 ac/ha, the seed treatment level of 125 g/100 kg is approximately equivalent to a surface banding treatment at about 21 g/ha.
The corn plants were infested at 12 DAP, which corresponds to late growth stage V1 by placing two black cutworm larvae at ¾ instar on the soil surface near the base of the plant. Plants were rated 3, 7 and 10 days after infestation (DAI) for the number of cut plants, as well as damage from leaf feeding. The percent stand reduction due to plant cutting was calculated by dividing the number of cut plants into the number of plants present at infestation. The foliar feeding injury was evaluated using a rating scale of 1=no damage and 10=complete defoliation.

[1] = system: corn plants (Pioneer hybrid PN3394); assay: Vigor rating of corn plants before infestation (indication of phytotoxicity); assay type: in vivo; details: rating 1=extremely low vigor, 10=highest
Method: as §1, §2
At twelve days after planting (DAP) but before infestation, the overall health of each plant was rated by looking at emergence, height and appearance. This vigor rating gives an indication of any phytotoxicity from the seed or soil treatment. A rating of 1 indicates extremely low vigor while 10 is the highest vigor rating.

CC1(C)[C@H](C(=O)O[C@H](C#N)c2cccc(Oc3ccccc3)c2)[C@@H]1/C=C(\Cl)C(F)(F)F [λ-cyhalothrin, [1 alpha(s), 3 alpha(z)]-cyano(3-phenoxyphenyl) methyl-3-(2-chloro-3,3,3-trifluoro-1-propenyl)-2,2-dimethylcyclopropane carboxylate]
Plant Defol. 3 DAI (black cutworm larvae; seed treatment 125 g/100 kg): 4.3 | Plant Defol. 7 DAI (black cutworm larvae; seed treatment 125 g/100 kg): 5.0 | Plant Defol. 10 DAI (black cutworm larvae; seed treatment 125 g/100 kg): 3.3 | % Stand Reduct'n 3 DAI (black cutworm larvae; seed treatment 250 g/100 kg): 3.0% | Plant Defol. 3 DAI (black cutworm larvae; seed treatment 250 g/100 kg): 3.7 | % Stand Reduct'n 7 DAI (black cutworm larvae; seed treatment 250 g/100 kg): 3.0% | % Stand Reduct'n 7 DAI (black cutworm larvae; seed treatment 250 g/100 kg, listed as lambda-cyhalothrin): 3% | Plant Defol. 7 DAI (black cutworm larvae; seed treatment 250 g/100 kg): 2.7 | % Stand Reduct'n 10 DAI (black cutworm larvae; seed treatment 250 g/100 kg): 3.0% | Plant Defol. 10 DAI (black cutworm larvae; seed treatment 250 g/100 kg): 1.7 | % Stand Reduct'n 3 DAI (black cutworm larvae; seed treatment 500 g/100 kg): 0.0% | Plant Defol. 3 DAI (black cutworm larvae; seed treatment 500 g/100 kg): 2.0 | % Stand Reduct'n 7 DAI (black cutworm larvae; seed treatment 500 g/100 kg): 0.0% | % Stand Reduct'n 7 DAI (black cutworm larvae; seed treatment 500 g/100 kg, listed as lambda-cyhalothrin): 0% | Plant Defol. 7 DAI (black cutworm larvae; seed treatment 500 g/100 kg): 2.3 | % Stand Reduct'n 10 DAI (black cutworm larvae; seed treatment 500 g/100 kg): 0.0% | Plant Defol. 10 DAI (black cutworm larvae; seed treatment 500 g/100 kg): 1.0 | protection of corn plants against shoot/foliar feeding damage by black cutworm (black cutworm larvae; seed treatment prior to planting): significant protection | Vigor at 12 DAP ([1]; seed treatment 125 g/100 kg): 9.0 | Vigor at 12 DAP ([1]; seed treatment 250 g/100 kg): 8.3 | Vigor at 12 DAP ([1]; seed treatment 500 g/100 kg): 8.3

Cc1c(F)c(F)c(COC(=O)[C@@H]2[C@H](/C=C(\Cl)C(F)(F)F)C2(C)C)c(F)c1F (racemic) [Tefluthrin, (2,3,5,6-tetrafluoro-4-methylphenyl)-methyl-(1 alpha, 3 alpha)-(Z)-(±)-3-(2-chloro-3,3,3-trifluoro-1-propenyl)-2,2-dimethylcyclopropanecarboxylate]
% Stand Reduct'n 3 DAI (black cutworm larvae; banded 30 g/ha (FORCE 3GR)): 0.0% | Vigor at 12 DAP ([1]; banded 30 g/ha (FORCE 3GR)): 8.7 | Vigor at 12 DAP ([1]; in-furrow 30 g/ha (FORCE 3GR)): 9.0
